Test results as given in patent publication US8138220B2, “[2-(6-fluoro-1H-indol-3-ylsulfanyl)benzyl]methyl amine for the treatment of affective disorders” (H. Lundbeck A/S, priority 2006, dated 2012).
“And” between values parts separate entries of the source, which are not always exact repeats. Equal entries are not always repeated.

Tests used:
5-HT2A receptors [1] = molecular target: T1, 5-HT2A receptors (Homo sapiens, UniProt P28223); experiment: 5-HT2A receptor affinity (MDL Pharmaservices catalogue number 271650); format: binding; design: purchased MDL Pharmaservices 271650; conditions: Cheng Prusoff from IC50, 5 concentrations
T1 sequence (P28223 whole entry): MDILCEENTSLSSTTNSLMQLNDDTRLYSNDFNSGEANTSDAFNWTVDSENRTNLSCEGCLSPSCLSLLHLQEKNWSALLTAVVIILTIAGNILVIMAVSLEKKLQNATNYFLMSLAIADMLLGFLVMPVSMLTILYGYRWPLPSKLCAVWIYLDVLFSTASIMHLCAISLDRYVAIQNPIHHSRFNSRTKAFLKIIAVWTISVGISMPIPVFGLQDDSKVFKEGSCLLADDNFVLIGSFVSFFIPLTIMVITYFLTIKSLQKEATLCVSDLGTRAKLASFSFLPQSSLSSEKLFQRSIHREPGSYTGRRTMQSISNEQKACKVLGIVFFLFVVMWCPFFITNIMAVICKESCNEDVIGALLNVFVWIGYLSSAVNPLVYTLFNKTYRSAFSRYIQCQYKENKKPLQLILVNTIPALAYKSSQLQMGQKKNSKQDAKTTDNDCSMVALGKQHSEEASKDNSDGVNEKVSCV
Protocol: 5 concentration of compound (1, 10, 30, 100, 1000 nM) were used to calculate the IC50 value. Ki was calculated from the Cheng Prusoff equation Ki=(IC50/(1+([L]/Kd)) Affinity was determined at MDL Pharmaservices catalogue number 271650.

5-HT2A receptors [2] = molecular target: T1, 5-HT2A receptors; experiment: 5-HT2A functional assay, 5-HT evoked Ca2+ release in CHO cells (FLIPR)
Protocol: The experiment was carried out as follows. 2 or 3 days before the experiment CHO cells expressing approximately 250 fmol/mg 5-HT2A receptors are plated at a density sufficient to yield a mono-confluent layer on the day of the experiment. […] Lacer intensity was set to a suitable level to obtain basal values of approximately 8000-10000 fluorescence units. The variation in basal fluorescence should be less than 10%. […] Test substances are added to the cells 5 minutes before the 5-HT.

α1A receptor = molecular target: T2, α1A receptor (Homo sapiens, UniProt P35348); experiment: α1A receptor affinity, [3H]-Prazosin binding to membranes; conditions: Cheng Prusoff
T2 construct: expressed in transfected cells
T2 sequence (P35348 1-466): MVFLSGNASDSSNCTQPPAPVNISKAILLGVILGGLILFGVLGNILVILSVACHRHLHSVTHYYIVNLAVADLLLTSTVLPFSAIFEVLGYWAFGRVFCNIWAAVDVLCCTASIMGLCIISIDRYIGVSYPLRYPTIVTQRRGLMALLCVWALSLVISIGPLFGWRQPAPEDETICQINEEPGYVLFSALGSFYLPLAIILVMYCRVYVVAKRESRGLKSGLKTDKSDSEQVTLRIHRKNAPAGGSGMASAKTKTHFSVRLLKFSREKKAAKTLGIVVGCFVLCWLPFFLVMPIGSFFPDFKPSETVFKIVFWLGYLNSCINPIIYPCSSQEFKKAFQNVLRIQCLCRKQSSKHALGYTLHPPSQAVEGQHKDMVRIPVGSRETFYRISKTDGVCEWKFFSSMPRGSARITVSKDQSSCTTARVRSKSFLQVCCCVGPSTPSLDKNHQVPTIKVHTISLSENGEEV
Protocol: On the day of the experiments membranes (see below for description of membrane preparation) are thawed and homogenized in buffer using an ultra turrax and diluted to the desired concentration (5 μg/well˜5 μg/900 μl, store on ice until use).
The experiment is initiated by mixing of 50 μl test compound, 50 μl [^3H]-Prazosin and 900 μl membranes, and the mixture is incubated for 20 minutes at 25° C. Non-specific binding is determined in the presence of 10 μM WB-4101 and the total binding is determined in the presence of buffer. After the incubation, bound ligand is separated from unbound by filtration through Unifilter GF/B, presoaked in 0.1% PEI for 30 minutes, using a Tomtec Cell Harvester program (D4.2 . . . 4) 96 well. Filters are washed 3 times with 1 ml ice-cold buffer, dried at 50° C. and 35 μl scintillation liquid/well is added to the filters. Bound radioactivity is counted in a Wallac OY 1450 MicroBeta. The affinity (Ki 10 nM) is calculated from Y=100/(1+10^(X-logIC50^)) where Y denotes % binding and X denotes the concentration of compound. […] Ki was calculated from the Cheng Prusoff equation Ki=(IC50/(1+([L]/Kd))
Cells were grown to 95% confluence, washed twice with buffer (50 mM Tris pH 7.7, 125 mM NaCl) and detached by scraping in a volume of 10 ml buffer/160 cm^2. […] Protein concentration was measured with BCA™ (Pierce #23223+23224).

CNCc1ccccc1Sc1c[nH]c2cc(F)ccc12 [compounds of the present invention, [2-(6-fluoro-1H-indol-3-ylsulfanyl)benzyl]methyl amine]
Ki (5-HT2A receptors [1]): 14 nM | Kb (5-HT2A receptors [2]): 130 nM | pA2 (5-HT2A receptors [2]; schild analysis, CHO cells expressing 5-HT2A, 5-HT curves with 150, 400, 1500, 4000 nM compound): 6.88 | Ki (α1A receptor): 14 nM and 10 nM
